Test results published in ChEMBL document CHEMBL1153530, “Pursuing aldose reductase inhibitors through in situ cross-docking and similarity-based virtual screening” (J Med Chem, 2009).

Target: Aldo-keto reductase family 1 member B1 (Rattus norvegicus, UniProt P07943)
Assay: Inhibition of ALR2 from Sprague-Dawley albino rat lens extract by spectrophotometrically

| SMILES | IC50 [µM] |
| --- | --- |
| Cc1ccc(S(=O)(=O)Oc2c(Cc3ccccc3)c(=O)n(C)c3ccccc23)cc1 | 31.1 |
| O=C(O)[C@H]1Cc2ccccc2N1C(=O)OCc1ccccc1 | 41.4 |
| O=C(O)C(Cc1ccc([N+](=O)[O-])cc1)NS(=O)(=O)c1ccccc1 (stereo unspecified) | 107 |
| O=C(O)CCCc1nc(-c2cnc3n(c2=O)CCS3)no1 | 1.19 |
| O=C(O)C[C@@H](CC(=O)Nc1ccc2ccccc2n1)c1ccccc1 | 85.3 |
| N#CC(C#N)=CNc1ccc(S(=O)(=O)c2ccc(NC=C(C#N)C#N)cc2)cc1 | 52.7 |
| O=S(=O)(Oc1ccc2nonc2c1)c1ccc(Cl)s1 | 35.6 |
| O=[N+]([O-])c1c(Sc2ccccc2)sc(Sc2ccccc2)c1[N+](=O)[O-] | 48.1 |
| O=C(O)[C@@H]1CSCN1C(=O)OCC1c2ccccc2-c2ccccc21 | 3.92 |
| CN(C)C(=O)Oc1ccc2nnc3ccnn3c2c1 | 38.7 |
| COc1cccc2c1c(NC(=O)CSCC(=O)O)nn2C | 77.6 |
